The source of these data is the supplement of paper PMC10307832.

Holding throughout (test): relative viability (nuclei count vs DMSO), 5 days (fraction); higher = more cells survive
Compound in one experiment: Cn1cncc1[C@@](N)(c1ccc(Cl)cc1)c1ccc2c(c1)c(-c1cccc(Cl)c1)cc(=O)n2C [Tipifarnib]
The procedure, abridged:
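Lung cancer cell lines received five library-drug doses (not always all listed) spaced by √10, pinned on vehicle-anchored 1536-well plates after an overnight stay at 37 °C. Five days later, with no medium change, nuclei were Hoechst-stained, imaged at 4× and counted with MetaXpress. Viability is treated-well nuclei relative to vehicle-well nuclei, as a median across plates. Passing plates had control CV below 25% and at least one doubling.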

Compound in the experiment “Tipifarnib + Navitoclax”: Cn1cncc1[C@@](N)(c1ccc(Cl)cc1)c1ccc2c(c1)c(-c1cccc(Cl)c1)cc(=O)n2C [Tipifarnib] + CC1(C)CCC(c2ccc(Cl)cc2)=C(CN2CCN(c3ccc(C(=O)NS(=O)(=O)c4ccc(N[C@H](CCN5CCOCC5)CSc5ccccc5)c(S(=O)(=O)C(F)(F)F)c4)cc3)CC2)C1 [Navitoclax] (partner 0.5 µM)
In a few lines:
(§1)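 Nuclei were stained with Hoechst during a one-step fixation (final 0.05% Triton X-100, 1% formaldehyde, 1 ug/ml Hoechst) carried out 5 days after dosing, then counted on 4× images. The cells, lung cancer lines in 1536-well plates, had been dosed by pin tool the day after seeding with one drug alone or a fixed anchor-drug dose plus five library-drug doses (not always all listed) in √10 steps. Relative viability is the nuclei count in treated wells divided by that in vehicle wells, and each value is the median of duplicate plates.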

Compound in the experiment “Tipifarnib + Tozasertib”: Cn1cncc1[C@@](N)(c1ccc(Cl)cc1)c1ccc2c(c1)c(-c1cccc(Cl)c1)cc(=O)n2C [Tipifarnib] + Cc1cc(Nc2cc(N3CCN(C)CC3)nc(Sc3ccc(NC(=O)C4CC4)cc3)n2)n[nH]1 [Tozasertib] (partner 0.1 µM)
The procedure, abridged: as §1

Compound in the experiment “Tipifarnib + Phenformin”: Cn1cncc1[C@@](N)(c1ccc(Cl)cc1)c1ccc2c(c1)c(-c1cccc(Cl)c1)cc(=O)n2C [Tipifarnib] + N=C(N)NC(=N)NCCc1ccccc1 [Phenformin] (partner 250 µM)
The procedure, abridged: as §1

In the case of COR-L23, the relative viability was found to be 1.04 with Tipifarnib (0.01 µM); 0.803 with Tipifarnib (0.03162 µM); 0.681 in the experiment with Tipifarnib (0.1 µM); 0.622 in the experiment with Tipifarnib (0.3162 µM); 0.467 with Tipifarnib (1 µM); 1.15 with Tipifarnib + Navitoclax (first compound 0.01 µM). Besides, the relative viability in the experiment with Tipifarnib + Navitoclax (first compound 0.03162 µM) turned out to be 0.804; with Tipifarnib + Navitoclax (first compound 0.1 µM) it was 0.679; in the experiment with Tipifarnib + Navitoclax (first compound 0.3162 µM) it was 0.492; in the experiment with Tipifarnib + Navitoclax (first compound 1 µM) it was 0.556; with Tipifarnib + Tozasertib (first compound 0.01 µM), 0.213; with Tipifarnib + Tozasertib (first compound 0.03162 µM), 0.175. Moreover, the relative viability with Tipifarnib + Tozasertib (first compound 0.1 µM) amounted to 0.232; in the experiment with Tipifarnib + Tozasertib (first compound 0.3162 µM), 0.146; in the experiment with Tipifarnib + Tozasertib (first compound 1 µM) it was 0.15; with Tipifarnib + Phenformin (first compound 0.01 µM) it was 0.469; in the experiment with Tipifarnib + Phenformin (first compound 0.03162 µM), 0.351; with Tipifarnib + Phenformin (first compound 0.1 µM) it was 0.361. Moreover, the relative viability was determined as 0.305 with Tipifarnib + Phenformin (first compound 0.3162 µM) and 0.238 in the experiment with Tipifarnib + Phenformin (first compound 1 µM).

On to COR-L 105, for which the relative viability is 0.935 with Tipifarnib (0.01 µM); 0.807 in the experiment with Tipifarnib (0.03162 µM); 0.734 with Tipifarnib (0.1 µM); 0.696 with Tipifarnib (0.3162 µM); 0.571 with Tipifarnib (1 µM); 0.874 with Tipifarnib + Navitoclax (first compound 0.01 µM). Also, the relative viability with Tipifarnib + Navitoclax (first compound 0.03162 µM) was determined as 0.578; with Tipifarnib + Navitoclax (first compound 0.1 µM), 0.739; with Tipifarnib + Navitoclax (first compound 0.3162 µM), 0.576; with Tipifarnib + Navitoclax (first compound 1 µM), 0.559; in the experiment with Tipifarnib + Tozasertib (first compound 0.01 µM), 0.333; in the experiment with Tipifarnib + Tozasertib (first compound 0.03162 µM), 0.356. Also, the relative viability with Tipifarnib + Tozasertib (first compound 0.1 µM) worked out at 0.281; with Tipifarnib + Tozasertib (first compound 0.3162 µM) it was 0.305; in the experiment with Tipifarnib + Tozasertib (first compound 1 µM), 0.294; with Tipifarnib + Phenformin (first compound 0.01 µM), 0.387; in the experiment with Tipifarnib + Phenformin (first compound 0.03162 µM), 0.389; with Tipifarnib + Phenformin (first compound 0.1 µM), 0.447. The relative viability stood at 0.339 in the experiment with Tipifarnib + Phenformin (first compound 0.3162 µM) and 0.281 in the experiment with Tipifarnib + Phenformin (first compound 1 µM).

Consider ChaGo-K-1, for which the relative viability worked out at 0.993 in the experiment with Tipifarnib (0.01 µM); 1.02 with Tipifarnib (0.03162 µM); 1.08 in the experiment with Tipifarnib (0.1 µM); 0.928 with Tipifarnib (0.3162 µM); 0.547 in the experiment with Tipifarnib (1 µM); 1.07 with Tipifarnib + Navitoclax (first compound 0.01 µM). Moreover, the relative viability was 1.11 with Tipifarnib + Navitoclax (first compound 0.03162 µM); 1.09 in the experiment with Tipifarnib + Navitoclax (first compound 0.1 µM); 0.933 in the experiment with Tipifarnib + Navitoclax (first compound 0.3162 µM); 0.626 with Tipifarnib + Navitoclax (first compound 1 µM); 0.226 with Tipifarnib + Tozasertib (first compound 0.01 µM); 0.22 with Tipifarnib + Tozasertib (first compound 0.03162 µM). For the same cell line, the relative viability in the experiment with Tipifarnib + Tozasertib (first compound 0.1 µM) came out at 0.213; with Tipifarnib + Tozasertib (first compound 0.3162 µM), 0.198; with Tipifarnib + Tozasertib (first compound 1 µM), 0.175; in the experiment with Tipifarnib + Phenformin (first compound 0.01 µM) it was 0.451; with Tipifarnib + Phenformin (first compound 0.03162 µM), 0.518; in the experiment with Tipifarnib + Phenformin (first compound 0.1 µM), 0.464. The results for the relative viability with Tipifarnib + Phenformin (first compound 0.3162 µM) and with Tipifarnib + Phenformin (first compound 1 µM) were 0.412 and 0.273, respectively.

EKVX: the relative viability with Tipifarnib (0.01 µM) was determined as 1.07; in the experiment with Tipifarnib (0.03162 µM), 0.954; with Tipifarnib (0.1 µM), 0.901; with Tipifarnib (0.3162 µM) it was 0.807; with Tipifarnib (1 µM) it was 0.531; with Tipifarnib + Navitoclax (first compound 0.01 µM), 1.01. Moreover, the relative viability with Tipifarnib + Navitoclax (first compound 0.03162 µM) was found to be 0.861; with Tipifarnib + Navitoclax (first compound 0.1 µM) it was 0.841; with Tipifarnib + Navitoclax (first compound 0.3162 µM), 0.744; with Tipifarnib + Navitoclax (first compound 1 µM), 0.49; with Tipifarnib + Tozasertib (first compound 0.01 µM), 0.447; in the experiment with Tipifarnib + Tozasertib (first compound 0.03162 µM), 0.331. Also, the relative viability came to 0.397 with Tipifarnib + Tozasertib (first compound 0.1 µM); 0.348 with Tipifarnib + Tozasertib (first compound 0.3162 µM); 0.297 with Tipifarnib + Tozasertib (first compound 1 µM); 0.238 with Tipifarnib + Phenformin (first compound 0.01 µM); 0.214 with Tipifarnib + Phenformin (first compound 0.03162 µM); 0.229 with Tipifarnib + Phenformin (first compound 0.1 µM). Further, the relative viability with Tipifarnib + Phenformin (first compound 0.3162 µM) was 0.211; with Tipifarnib + Phenformin (first compound 1 µM), 0.173.

With EMC-BAC-2, the relative viability with Tipifarnib (0.01 µM) was found to be 0.997; in the experiment with Tipifarnib (0.03162 µM) it was 0.936; in the experiment with Tipifarnib (0.1 µM), 0.82; with Tipifarnib (0.3162 µM) it was 0.809; with Tipifarnib (1 µM), 0.529; in the experiment with Tipifarnib + Navitoclax (first compound 0.01 µM) it was 1.2. The relative viability with Tipifarnib + Navitoclax (first compound 0.03162 µM) stood at 1.12; with Tipifarnib + Navitoclax (first compound 0.1 µM), 1.06; with Tipifarnib + Navitoclax (first compound 0.3162 µM) it was 0.993; in the experiment with Tipifarnib + Navitoclax (first compound 1 µM), 0.816; with Tipifarnib + Tozasertib (first compound 0.01 µM) it was 0.3; with Tipifarnib + Tozasertib (first compound 0.03162 µM), 0.281. In addition, the relative viability in the experiment with Tipifarnib + Tozasertib (first compound 0.1 µM) was 0.272; with Tipifarnib + Tozasertib (first compound 0.3162 µM), 0.262; in the experiment with Tipifarnib + Tozasertib (first compound 1 µM), 0.271; in the experiment with Tipifarnib + Phenformin (first compound 0.01 µM) it was 0.501; in the experiment with Tipifarnib + Phenformin (first compound 0.03162 µM) it was 0.437; with Tipifarnib + Phenformin (first compound 0.1 µM), 0.459. Moreover, the relative viability with Tipifarnib + Phenformin (first compound 0.3162 µM) amounted to 0.485; in the experiment with Tipifarnib + Phenformin (first compound 1 µM), 0.357.

Consider EPLC-272H, for which the relative viability with Tipifarnib (0.01 µM) came to 0.995; with Tipifarnib (0.03162 µM), 0.761; with Tipifarnib (0.1 µM), 0.818; with Tipifarnib (0.3162 µM) it was 0.618; with Tipifarnib (1 µM), 0.238; with Tipifarnib + Navitoclax (first compound 0.01 µM) it was 1.34. For the same cell line, the relative viability with Tipifarnib + Navitoclax (first compound 0.03162 µM) came out at 0.908; with Tipifarnib + Navitoclax (first compound 0.1 µM) it was 1.07; with Tipifarnib + Navitoclax (first compound 0.3162 µM), 0.837; in the experiment with Tipifarnib + Navitoclax (first compound 1 µM), 0.741; with Tipifarnib + Tozasertib (first compound 0.01 µM), 0.366; in the experiment with Tipifarnib + Tozasertib (first compound 0.03162 µM) it was 0.266. In addition, the relative viability with Tipifarnib + Tozasertib (first compound 0.1 µM) was 0.224; in the experiment with Tipifarnib + Tozasertib (first compound 0.3162 µM), 0.249; in the experiment with Tipifarnib + Tozasertib (first compound 1 µM) it was 0.243; in the experiment with Tipifarnib + Phenformin (first compound 0.01 µM) it was 0.357; with Tipifarnib + Phenformin (first compound 0.03162 µM), 0.328; with Tipifarnib + Phenformin (first compound 0.1 µM), 0.344. Besides, the relative viability with Tipifarnib + Phenformin (first compound 0.3162 µM) is 0.266; in the experiment with Tipifarnib + Phenformin (first compound 1 µM), 0.149.

Take H3255: the relative viability is 1.05 with Tipifarnib (0.01 µM); 0.991 with Tipifarnib (0.03162 µM); 0.796 with Tipifarnib (0.1 µM); 0.642 with Tipifarnib (0.3162 µM); 0.617 with Tipifarnib (1 µM); 0.546 in the experiment with Tipifarnib + Navitoclax (first compound 0.01 µM). Besides, the relative viability in the experiment with Tipifarnib + Navitoclax (first compound 0.03162 µM) turned out to be 0.568; with Tipifarnib + Navitoclax (first compound 0.1 µM), 0.496; with Tipifarnib + Navitoclax (first compound 0.3162 µM) it was 0.35; with Tipifarnib + Navitoclax (first compound 1 µM), 0.299; with Tipifarnib + Tozasertib (first compound 0.01 µM), 0.72; in the experiment with Tipifarnib + Tozasertib (first compound 0.03162 µM), 0.674. For the same cell line, the relative viability with Tipifarnib + Tozasertib (first compound 0.1 µM) came out at 0.528; in the experiment with Tipifarnib + Tozasertib (first compound 0.3162 µM) it was 0.476; in the experiment with Tipifarnib + Tozasertib (first compound 1 µM), 0.389; in the experiment with Tipifarnib + Phenformin (first compound 0.01 µM) it was 0.376; with Tipifarnib + Phenformin (first compound 0.03162 µM) it was 0.436; in the experiment with Tipifarnib + Phenformin (first compound 0.1 µM), 0.395. The relative viability in the experiment with Tipifarnib + Phenformin (first compound 0.3162 µM) stood at 0.344; with Tipifarnib + Phenformin (first compound 1 µM) it was 0.353.
